Patent US10688116B2, “Treatment of metabolic disorders in equine animals” (Boehringer Ingelheim Vetmedica GmbH, priority 2014, dated 2020)

Experiment: Physicochemical properties of the crystalline complex

In the case of `N#Cc1ccc([C@@H]2O[C@H](CO)[C@@H](O)[C@H](O)[C@H]2O)cc1Cc1ccc(C2CC2)cc1.O=C(O)[C@@H]1CCCN1` [crystalline complex], the “tendency to absorb moisture” value is reported as “does not show a high tendency to absorb moisture” and the “physical and chemical stability” value (various environmental conditions and during production of a medicament) is reported as “high physical and chemical stability”.
